Source: ChEMBL document CHEMBL4043187, “Synthesis and biological evaluation of N9-cis-cyclobutylpurine derivatives for use as cyclin-dependent kinase (CDK) inhibitors” (Bioorg Med Chem Lett, 2017)

Key:
[1] = molecular target: Cyclin-dependent kinase 5/CDK5 activator 1 (Homo sapiens) (UniProt Q00535+Q15078); assay: Inhibition of CDK5/p35 (unknown origin) using ULingt-4E-BP as substrate at 25 nM after 1 hr in presence of ATP by fluorescence assay relative to control; format: protein-complex assay
Chain of Cyclin-dependent kinase 5/CDK5 activator 1 (Homo sapiens) (Q00535 whole entry): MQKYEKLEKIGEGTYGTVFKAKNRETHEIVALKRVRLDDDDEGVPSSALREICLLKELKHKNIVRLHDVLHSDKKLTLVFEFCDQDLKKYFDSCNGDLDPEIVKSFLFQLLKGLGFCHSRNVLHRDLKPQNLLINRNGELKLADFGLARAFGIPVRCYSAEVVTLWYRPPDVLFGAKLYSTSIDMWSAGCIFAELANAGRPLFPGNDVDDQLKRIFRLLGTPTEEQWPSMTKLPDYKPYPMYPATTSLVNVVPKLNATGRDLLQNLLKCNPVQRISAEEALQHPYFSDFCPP
Chain of Cyclin-dependent kinase 5/CDK5 activator 1 (Homo sapiens) (Q15078 99-307 partner limits assumed): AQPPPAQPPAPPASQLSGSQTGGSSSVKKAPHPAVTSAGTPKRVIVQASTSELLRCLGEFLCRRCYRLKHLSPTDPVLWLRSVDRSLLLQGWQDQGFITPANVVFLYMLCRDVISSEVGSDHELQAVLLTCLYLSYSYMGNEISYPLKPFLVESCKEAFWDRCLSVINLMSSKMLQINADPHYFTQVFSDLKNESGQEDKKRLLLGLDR

[2] = molecular target: CDK2/Cyclin A2 (Homo sapiens) (UniProt P24941+P20248); assay: Inhibition of CDK2/CyclinA (unknown origin) using ULingt-4E-BP as substrate at 25 nM after 1 hr in presence of ATP by fluorescence assay relative to control; format: protein-complex assay
[3] = molecular target: CDK7/Cyclin H/MNAT1 (Homo sapiens, UniProt P50613); assay: Inhibition of human CDK7/CyclinH/MAT1; format: protein-complex assay
Chain of CDK7/Cyclin H/MNAT1 (P51946 whole entry): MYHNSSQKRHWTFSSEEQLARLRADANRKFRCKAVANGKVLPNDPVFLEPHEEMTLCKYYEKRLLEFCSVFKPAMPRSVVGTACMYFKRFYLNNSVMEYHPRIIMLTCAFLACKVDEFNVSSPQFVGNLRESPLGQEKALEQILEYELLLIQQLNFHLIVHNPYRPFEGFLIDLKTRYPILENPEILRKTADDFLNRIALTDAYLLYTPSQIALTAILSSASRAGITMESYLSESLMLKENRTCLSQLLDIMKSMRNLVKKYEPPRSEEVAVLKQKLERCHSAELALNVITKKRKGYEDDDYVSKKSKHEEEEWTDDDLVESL
Chain of CDK7/Cyclin H/MNAT1 (P50613 whole entry): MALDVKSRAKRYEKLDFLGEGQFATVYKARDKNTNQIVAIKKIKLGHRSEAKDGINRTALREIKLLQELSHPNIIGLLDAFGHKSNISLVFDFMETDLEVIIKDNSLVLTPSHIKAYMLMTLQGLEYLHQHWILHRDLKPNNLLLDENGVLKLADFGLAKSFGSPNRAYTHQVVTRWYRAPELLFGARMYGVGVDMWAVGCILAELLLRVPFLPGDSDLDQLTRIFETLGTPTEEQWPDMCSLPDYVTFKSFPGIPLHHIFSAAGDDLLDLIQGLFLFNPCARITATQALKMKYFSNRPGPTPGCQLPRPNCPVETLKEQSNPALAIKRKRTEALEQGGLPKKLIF
Chain of CDK7/Cyclin H/MNAT1 (P51948 whole entry, further chain): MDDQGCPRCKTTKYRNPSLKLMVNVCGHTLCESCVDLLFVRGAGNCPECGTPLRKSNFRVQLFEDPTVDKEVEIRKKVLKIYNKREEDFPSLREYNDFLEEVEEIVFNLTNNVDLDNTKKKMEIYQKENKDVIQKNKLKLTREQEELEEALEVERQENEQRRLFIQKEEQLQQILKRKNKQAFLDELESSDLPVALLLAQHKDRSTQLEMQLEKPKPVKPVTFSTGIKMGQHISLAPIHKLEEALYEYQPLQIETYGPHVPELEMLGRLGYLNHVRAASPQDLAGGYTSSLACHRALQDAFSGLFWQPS

[4] = molecular target: CDK4/Cyclin D3 (Homo sapiens, UniProt P11802); assay: Inhibition of human CDK4/CyclinD3; format: protein-complex assay
Chain of CDK4/Cyclin D3 (P11802 whole entry): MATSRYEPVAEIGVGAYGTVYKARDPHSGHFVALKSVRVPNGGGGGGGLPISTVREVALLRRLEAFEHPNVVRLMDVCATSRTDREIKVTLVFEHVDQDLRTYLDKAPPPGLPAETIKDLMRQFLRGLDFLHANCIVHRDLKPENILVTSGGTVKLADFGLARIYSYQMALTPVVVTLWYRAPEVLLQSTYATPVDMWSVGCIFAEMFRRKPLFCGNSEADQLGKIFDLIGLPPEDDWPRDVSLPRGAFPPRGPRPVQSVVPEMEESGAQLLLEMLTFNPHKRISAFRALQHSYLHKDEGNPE
Chain of CDK4/Cyclin D3 (P30281 whole entry, further chain): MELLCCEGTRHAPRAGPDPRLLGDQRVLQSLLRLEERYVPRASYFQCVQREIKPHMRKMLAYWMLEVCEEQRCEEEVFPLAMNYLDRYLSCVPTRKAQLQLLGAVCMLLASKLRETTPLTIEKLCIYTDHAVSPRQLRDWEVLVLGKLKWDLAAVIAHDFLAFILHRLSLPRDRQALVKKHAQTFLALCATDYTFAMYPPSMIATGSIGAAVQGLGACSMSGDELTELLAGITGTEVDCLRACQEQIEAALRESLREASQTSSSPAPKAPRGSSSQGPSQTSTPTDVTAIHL

[5] = tested on: MCF7; assay: Growth inhibition of human MCF7 cells after 72 hrs by SRB assay; format: functional
[6] = molecular target: CDK9/cyclin T1 (Homo sapiens, UniProt P50750); assay: Inhibition of human CDK9/CyclinT1; format: protein-complex assay
Chain of CDK9/cyclin T1 (O60563 whole entry): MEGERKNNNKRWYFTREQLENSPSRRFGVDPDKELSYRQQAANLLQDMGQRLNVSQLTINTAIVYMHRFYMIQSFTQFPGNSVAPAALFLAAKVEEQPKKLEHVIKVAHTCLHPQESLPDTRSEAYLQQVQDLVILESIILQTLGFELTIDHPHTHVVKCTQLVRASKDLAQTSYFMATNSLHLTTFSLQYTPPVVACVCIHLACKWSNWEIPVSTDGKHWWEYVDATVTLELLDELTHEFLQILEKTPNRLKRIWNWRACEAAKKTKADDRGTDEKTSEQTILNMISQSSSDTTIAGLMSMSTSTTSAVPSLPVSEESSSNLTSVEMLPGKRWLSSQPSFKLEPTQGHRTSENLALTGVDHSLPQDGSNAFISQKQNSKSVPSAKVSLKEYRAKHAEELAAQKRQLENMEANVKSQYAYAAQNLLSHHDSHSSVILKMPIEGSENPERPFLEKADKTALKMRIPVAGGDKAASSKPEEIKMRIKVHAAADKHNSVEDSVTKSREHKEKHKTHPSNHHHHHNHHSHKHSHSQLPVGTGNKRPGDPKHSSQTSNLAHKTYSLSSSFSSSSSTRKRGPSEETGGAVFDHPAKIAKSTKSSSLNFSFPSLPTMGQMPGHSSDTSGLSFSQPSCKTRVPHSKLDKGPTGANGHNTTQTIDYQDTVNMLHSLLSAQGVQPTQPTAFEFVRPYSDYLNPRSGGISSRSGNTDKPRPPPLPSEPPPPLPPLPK
Chain of CDK9/cyclin T1 (P50750 whole entry): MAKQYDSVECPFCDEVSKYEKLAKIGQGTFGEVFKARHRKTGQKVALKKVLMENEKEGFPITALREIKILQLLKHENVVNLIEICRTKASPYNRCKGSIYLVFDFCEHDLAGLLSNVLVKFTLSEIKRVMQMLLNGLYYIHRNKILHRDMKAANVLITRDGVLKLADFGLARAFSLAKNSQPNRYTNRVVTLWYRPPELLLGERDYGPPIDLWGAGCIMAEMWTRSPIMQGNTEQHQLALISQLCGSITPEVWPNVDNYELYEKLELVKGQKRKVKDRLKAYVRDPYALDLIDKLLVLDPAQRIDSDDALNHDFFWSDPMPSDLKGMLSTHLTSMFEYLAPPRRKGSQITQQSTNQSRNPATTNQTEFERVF

[7] = molecular target: CDK6/cyclin D3 (Homo sapiens, UniProt Q00534); assay: Inhibition of human CDK6/CyclinD3; format: protein-complex assay
Chain of CDK6/cyclin D3 (P30281 whole entry): as the sequence (P30281 whole entry, further chain) above
Chain of CDK6/cyclin D3 (Q00534 whole entry): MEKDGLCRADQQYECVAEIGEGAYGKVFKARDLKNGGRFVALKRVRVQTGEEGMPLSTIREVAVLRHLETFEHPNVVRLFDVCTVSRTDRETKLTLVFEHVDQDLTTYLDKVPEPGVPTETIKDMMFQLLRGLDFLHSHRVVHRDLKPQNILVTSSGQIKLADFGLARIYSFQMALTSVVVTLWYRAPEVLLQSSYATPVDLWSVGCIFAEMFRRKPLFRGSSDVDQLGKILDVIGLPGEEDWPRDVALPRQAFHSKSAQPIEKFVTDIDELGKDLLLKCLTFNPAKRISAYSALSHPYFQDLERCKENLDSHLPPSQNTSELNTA

[8] = molecular target: Cyclin-dependent kinase 1/cyclin B1 (Homo sapiens, UniProt P06493); assay: Inhibition of human CDK1/CyclinB; format: protein-complex assay
Chain of Cyclin-dependent kinase 1/cyclin B1 (P06493 whole entry): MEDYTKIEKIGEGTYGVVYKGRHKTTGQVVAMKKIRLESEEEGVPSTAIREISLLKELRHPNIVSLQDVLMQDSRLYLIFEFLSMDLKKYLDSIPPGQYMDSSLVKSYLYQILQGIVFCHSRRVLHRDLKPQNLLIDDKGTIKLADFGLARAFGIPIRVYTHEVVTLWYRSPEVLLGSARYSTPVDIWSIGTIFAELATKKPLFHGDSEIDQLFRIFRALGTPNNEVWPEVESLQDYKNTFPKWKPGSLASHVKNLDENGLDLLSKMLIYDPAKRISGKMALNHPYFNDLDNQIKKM
Chain of Cyclin-dependent kinase 1/cyclin B1 (P14635 whole entry, further chain): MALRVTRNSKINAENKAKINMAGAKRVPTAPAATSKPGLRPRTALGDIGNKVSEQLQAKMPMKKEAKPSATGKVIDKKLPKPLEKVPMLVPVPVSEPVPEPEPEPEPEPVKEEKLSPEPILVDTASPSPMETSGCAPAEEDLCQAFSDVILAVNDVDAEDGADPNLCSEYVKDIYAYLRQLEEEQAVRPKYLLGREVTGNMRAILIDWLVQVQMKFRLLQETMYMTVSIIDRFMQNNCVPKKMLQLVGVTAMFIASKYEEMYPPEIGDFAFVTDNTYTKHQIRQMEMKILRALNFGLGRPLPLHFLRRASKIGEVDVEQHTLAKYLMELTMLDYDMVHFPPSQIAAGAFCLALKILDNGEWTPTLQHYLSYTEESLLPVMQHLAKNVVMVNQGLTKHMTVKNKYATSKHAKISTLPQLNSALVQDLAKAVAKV

[9] = tested on: HCT-116; assay: Growth inhibition of human HCT116 cells after 72 hrs by SRB assay; format: functional
[10] = molecular target: Cyclin-dependent kinase 5/CDK5 activator 1 (Homo sapiens, UniProt Q00535); assay: Inhibition of CDK5/p35 (unknown origin) using ULingt-4E-BP as substrate after 1 hr in presence of ATP by fluorescence assay; format: protein-complex assay
Chain of Cyclin-dependent kinase 5/CDK5 activator 1 (Q00535 whole entry): as the sequence (Q00535 whole entry) above
Chain of Cyclin-dependent kinase 5/CDK5 activator 1 (Q15078 whole entry, further chain): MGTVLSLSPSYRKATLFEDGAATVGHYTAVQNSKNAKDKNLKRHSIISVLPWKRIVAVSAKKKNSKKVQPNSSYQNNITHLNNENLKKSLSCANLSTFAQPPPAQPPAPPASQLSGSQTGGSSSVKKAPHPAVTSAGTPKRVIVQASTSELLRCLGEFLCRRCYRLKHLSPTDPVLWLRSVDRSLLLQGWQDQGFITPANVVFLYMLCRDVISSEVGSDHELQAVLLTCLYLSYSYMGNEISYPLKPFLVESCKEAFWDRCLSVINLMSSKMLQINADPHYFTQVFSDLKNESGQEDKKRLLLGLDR

[11] = molecular target: CDK2/Cyclin A2 (Homo sapiens, UniProt P24941); assay: Inhibition of CDK2/CyclinA (unknown origin) using ULingt-4E-BP as substrate after 1 hr in presence of ATP by fluorescence assay; format: protein-complex assay

inhibition [1]	inhibition [2]	IC50 [10]	IC50 [11]	SMILES	other results
58%	< 50%	–	–	Cc1cccc(C(=O)N[C@H]2C[C@@H](n3cnc4c(NCc5ccc(C(F)(F)F)cc5)ncnc43)C2)n1	–
–	–	2.3 nM	7.2 nM	Cc1cccc(C(=O)N[C@H]2C[C@@H](n3cnc4c(NCc5cccc(Cl)c5)ncnc43)C2)n1	IC50 [3]: 319 nM; IC50 [4]: > 1000 nM; GI [5]: 2.49 µM; IC50 [6]: 27 nM; IC50 [7]: > 1000 nM; IC50 [8]: 23 nM; GI [9]: 2.14 µM
–	–	71 nM	48 nM	Cc1cccc(C(=O)N[C@H]2C[C@@H](n3cnc4c(NCC5CCNCC5)ncnc43)C2)n1	–
72%	< 50%	–	–	Cc1cccc(C(=O)N[C@H]2C[C@@H](n3cnc4c(NCc5cccc(C(F)(F)F)c5)ncnc43)C2)n1	–
80%	64%	–	–	Cc1cccc(C(=O)N[C@H]2C[C@@H](n3cnc4c(NCc5ccc(Br)cc5)ncnc43)C2)n1	–
–	–	> 1000 nM	–	Cc1cccc(C(=O)N[C@H]2C[C@@H](n3cnc4c(NC5CCN(C)CC5)ncnc43)C2)n1	–
–	–	31 nM	38 nM	O=C(N[C@H]1C[C@@H](n2cnc3c(NCc4cccnc4)ncnc32)C1)c1cccc(-c2ccccc2)n1	–
< 50%	< 50%	–	–	COc1ccccc1CNc1ncnc2c1ncn2[C@H]1C[C@@H](NC(=O)c2cccc(C)n2)C1	–
< 50%	< 50%	–	–	Cc1cccc(C(=O)N[C@H]2C[C@@H](n3cnc4c(NCc5ccccc5C)ncnc43)C2)n1	–
–	–	67 nM	18 nM	COc1cccc(Nc2ncnc3c2ncn3[C@H]2C[C@@H](NC(=O)c3cccc(C)n3)C2)c1	–
–	–	23 nM	14 nM	O=C(N[C@H]1C[C@@H](n2cnc3c(NCc4cccnc4)ncnc32)C1)c1cccc(C(F)(F)F)n1	–
63%	< 50%	–	–	COc1ccc(Nc2ncnc3c2ncn3[C@H]2C[C@@H](NC(=O)c3cccc(C)n3)C2)cc1	–
64%	82%	–	–	O=C(N[C@H]1C[C@@H](n2cnc3c(NCc4cccnc4)ncnc32)C1)c1c(Cl)cccc1Cl	–
< 50%	< 50%	–	–	COc1ccc(C(=O)N[C@H]2C[C@@H](n3cnc4c(NCc5cccnc5)ncnc43)C2)cc1	–
< 50%	< 50%	–	–	COc1cc(Cl)ccc1C(=O)N[C@H]1C[C@@H](n2cnc3c(NCc4cccnc4)ncnc32)C1	–
< 50%	< 50%	–	–	O=C(N[C@H]1C[C@@H](n2cnc3c(NCc4cccnc4)ncnc32)C1)c1ccncc1	–
–	–	> 500 nM	–	Cc1cccc(C(=O)N[C@H]2C[C@@H](n3cnc4c(N[C@H]5CC[C@H](O)CC5)ncnc43)C2)n1	–
–	–	> 1000 nM	> 1000 nM	Cc1cccc(C(=O)N[C@H]2C[C@@H](n3cnc4c(Nc5ccncc5)ncnc43)C2)n1	–
< 50%	< 50%	–	–	CN1CCCC1C(=O)N[C@H]1C[C@@H](n2cnc3c(NCc4cccnc4)ncnc32)C1 (some centres undefined)	–

inhibition [1]	inhibition [2]	IC50 [10]	IC50 [11]	SMILES	other results
48%	62%	–	–	Cc1cccc(C(=O)N[C@H]2C[C@@H](n3cnc4c(NC5CCN(S(C)(=O)=O)CC5)ncnc43)C2)n1	–
–	–	4.8 nM	2.1 nM	Cc1cccc(C(=O)N[C@H]2C[C@@H](n3cnc4c(NCc5cccc(Br)c5)ncnc43)C2)n1	IC50 [3]: 359 nM; IC50 [4]: 611 nM; GI [5]: 2.43 µM; IC50 [6]: 19 nM; IC50 [7]: > 1000 nM; IC50 [8]: 24 nM; GI [9]: 2.37 µM
–	–	25 nM	49 nM	Cc1cccc(C(=O)N[C@H]2C[C@@H](n3cnc4c(NCC5CCCCC5)ncnc43)C2)n1	–
< 50%	< 50%	–	–	O=C(N[C@H]1C[C@@H](n2cnc3c(NCc4cccnc4)ncnc32)C1)c1cccnc1	–
60%	< 50%	–	–	Cc1cccc(C(=O)N[C@H]2C[C@@H](n3cnc4c(Nc5cccc(Cl)c5)ncnc43)C2)n1	–
–	–	162 nM	379 nM	Cc1cccc(C(=O)N[C@H]2C[C@@H](n3cnc4c(NC5CCNCC5)ncnc43)C2)n1	–
–	–	66 nM	95 nM	Cc1cccc(C(=O)N[C@H]2C[C@@H](n3cnc4c(NC5CCN(C(=O)OC(C)(C)C)CC5)ncnc43)C2)n1	–
–	–	34 nM	77 nM	Cc1cccc(C(=O)N[C@H]2C[C@@H](n3cnc4c(NCc5ccc(Cl)c(Cl)c5)ncnc43)C2)n1	–
–	–	> 1000 nM	–	Cc1cccc(C(=O)N[C@H]2C[C@@H](n3cnc4c(NC5CCNC5)ncnc43)C2)n1 (some centres undefined)	–
–	–	90 nM	376 nM	Cc1cccc(C(=O)N[C@H]2C[C@@H](n3cnc4c(NCC5CCN(C(=O)OC(C)(C)C)CC5)ncnc43)C2)n1	–
–	–	10 nM	16 nM	Cc1cccc(C(=O)N[C@H]2C[C@@H](n3cnc4c(NCc5cccnc5)ncnc43)C2)n1	–
59%	< 50%	–	–	Cc1cccc(C(=O)N[C@H]2C[C@@H](n3cnc4c(NCc5ccccc5Cl)ncnc43)C2)n1	–
< 50%	< 50%	–	–	O=C(N[C@H]1C[C@@H](n2cnc3c(NCc4cccnc4)ncnc32)C1)c1cccc(Cl)c1Cl	–
< 50%	< 50%	–	–	Cc1cccc(C(=O)N[C@H]2C[C@@H](n3cnc4c(Nc5cccc(F)c5)ncnc43)C2)n1	–
–	–	6 nM	15 nM	Cc1cccc(C(=O)N[C@H]2C[C@@H](n3cnc4c(NCc5cccc(F)c5)ncnc43)C2)n1	–
–	–	13 nM	29 nM	Cc1cccc(C(=O)N[C@H]2C[C@@H](n3cnc4c(NCc5ccc(F)c(F)c5)ncnc43)C2)n1	–
< 50%	< 50%	–	–	Cc1ccc(C(=O)N[C@H]2C[C@@H](n3cnc4c(NCc5cccnc5)ncnc43)C2)cc1C	–
< 50%	< 50%	–	–	O=C(N[C@H]1C[C@@H](n2cnc3c(NCc4cccnc4)ncnc32)C1)c1cnccn1	–
81%	57%	–	–	COc1ccc(CNc2ncnc3c2ncn3[C@H]2C[C@@H](NC(=O)c3cccc(C)n3)C2)cc1	–

inhibition [1]	inhibition [2]	IC50 [10]	IC50 [11]	SMILES	other results
48%	62%	–	–	CS(=O)(=O)N1CCC(C(=O)N[C@H]2C[C@@H](n3cnc4c(NCc5cccnc5)ncnc43)C2)CC1	–
–	–	> 500 nM	–	Cc1cccc(C(=O)N[C@H]2C[C@@H](n3cnc4c(NC5CCN(C(=O)OC(C)(C)C)C5)ncnc43)C2)n1 (some centres undefined)	–
54%	49%	–	–	Cc1cccc(C(=O)N[C@H]2C[C@@H](n3cnc4c(NCc5ccccn5)ncnc43)C2)n1	–
< 50%	< 50%	–	–	O=C(CC1CCCCC1)N[C@H]1C[C@@H](n2cnc3c(NCc4cccnc4)ncnc32)C1	–
–	–	27 nM	112 nM	CC(=O)N[C@H]1CC[C@@H](Nc2ncnc3c2ncn3[C@H]2C[C@@H](NC(=O)c3cccc(C)n3)C2)CC1	–
< 50%	< 50%	–	–	Cc1cccc(C(=O)N[C@H]2C[C@@H](n3cnc4c(NCc5ccc(Oc6ccccc6)cc5)ncnc43)C2)n1	–
55%	< 50%	–	–	Cc1cccc(C(=O)N[C@H]2C[C@@H](n3cnc4c(NCc5ccccc5F)ncnc43)C2)n1	–
–	–	30 nM	5.4 nM	Cc1cccc(C(=O)N[C@H]2C[C@@H](n3cnc4c(NCc5ccc(F)cc5)ncnc43)C2)n1	–
< 50%	< 50%	–	–	O=C(N[C@H]1C[C@@H](n2cnc3c(NCc4cccnc4)ncnc32)C1)C1CCOCC1	–
< 50%	< 50%	–	–	CN(C)c1cccc(C(=O)N[C@H]2C[C@@H](n3cnc4c(NCc5cccnc5)ncnc43)C2)c1	–
–	–	179 nM	474 nM	CC(=O)N1CCC(Nc2ncnc3c2ncn3[C@H]2C[C@@H](NC(=O)c3cccc(C)n3)C2)CC1	–
< 50%	< 50%	–	–	O=C(N[C@H]1C[C@@H](n2cnc3c(NCc4cccnc4)ncnc32)C1)c1ccccc1	–
53%	< 50%	–	–	Cc1cccc(C(=O)N[C@H]2C[C@@H](n3cnc4c(NCc5ccc(N(C)C)cc5)ncnc43)C2)n1	–
57%	78%	–	–	O=C(N[C@H]1C[C@@H](n2cnc3c(NCc4cccnc4)ncnc32)C1)c1c(F)cccc1F	–
< 50%	< 50%	–	–	Cc1cccc(C(=O)N[C@H]2C[C@@H](n3cnc4c(NCc5ccc(C#N)cc5)ncnc43)C2)n1	–
54%	< 50%	–	–	Cc1cccc(C(=O)N[C@H]2C[C@@H](n3cnc4c(NCc5ccc(OC(F)(F)F)cc5)ncnc43)C2)n1	–
< 50%	< 50%	–	–	Cc1cccc(C(=O)N[C@H]2C[C@@H](n3cnc4c(NCc5ccncc5)ncnc43)C2)n1	–
–	–	94 nM	54 nM	COc1ccc(Nc2ncnc3c2ncn3[C@H]2C[C@@H](NC(=O)c3cccc(C)n3)C2)cc1OC	–
–	–	30 nM	160 nM	CC(=O)N[C@H]1CC[C@H](Nc2ncnc3c2ncn3[C@H]2C[C@@H](NC(=O)c3cccc(C)n3)C2)CC1	–
